Data taken from patent publication US20220073536A1 (Rigel Pharmaceuticals, Inc., priority 2003, published 2022).
Like-named read-outs stand apart in the source and are kept apart here.

Tests used:
Syk kinase = target: T1, Syk kinase (Homo sapiens, UniProt P43405); assay: Syk kinase biochemical fluorescence polarization assay; conditions: isolated Syk kinase, read-out: fp_syk, 11 pt
T1 construct: purchased Upstate, Lake Placid N.Y
Procedure: Many of the 2,4-pyrimidinediamine compounds were tested for the ability to inhibit Syk kinase catalyzed phosphorylation of a peptide substrate in a biochemical fluorescenced polarization assay with isolated Syk kinase. In this experiment, Compounds were diluted to 1% DMSO in kinase buffer (20 mM HEPES, pH 7.4, 5 mM MgCl2, 2 mM MnCl2, 1 mM DTT, 0.1 mg/mL acetylated Bovine Gamma Globulin). Compound in 1% DMSO (0.2% DMSO final) was mixed with ATP/substrate solution at room temperature. Syk kinase (Upstate, Lake Placid N.Y.) was added to a final reaction volume of 20 uL, and the reaction was incubated for 30 minutes at room temperature. […] EDTA (10 mM final)/anti-phosphotyrosine antibody (1× final)/fluorescent phosphopeptide tracer (0.5× final) was added in FP Dilution Buffer to stop the reaction for a total volume of 40 uL according to manufacturer's instructions (PanVera Corporation) The plate was incubated for 30 minutes in the dark at room temperature. Plates were read on a Polarion fluorescence polarization plate reader (Tecan). Data were converted to amount of phosphopeptide present using a calibration curve generated by competition with the phosphopeptide competitor provided in the Tyrosine Kinase Assay Kit, Green (PanVera Corporation).

[1] = tested on: cultured human mast cells (CHMC); assay: CHMC low cell density IgE activation: tryptase assay; format: cell-based; conditions: Homo sapiens, Mast cell, low cell density CHMC, IgE activation
How it was run: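 Anti-IgE-driven degranulation of cultured human mast cells at low density, 1000–1500 cells/well, was induced over 30 min at 37 °C. It was scored by supernatant tryptase activity on a fluorogenic substrate.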

[2] = tested on: cultured human mast cells (CHMC); assay: CHMC low cell density ionomycin activation: tryptase assay; format: cell-based; conditions: Homo sapiens, Mast cell, low cell density CHMC, read-out: LD Tryptase, CHMC, Iono, 3 pt
[3] = tryptase, 3 pt, read-out: LD Tryptase, CHMC, IgE, 3 pt
[4] = tryptase, 8 pt, read-out: LD Tryptase, CHMC, IgE, 8 pt
[5] = tryptase release, 3 pt, read-out: LD Tryptase, CHMC, IgE, 3 pt
[6] = tryptase release, 8 pt, read-out: LD Tryptase, CHMC, IgE, 8 pt

SMILES	IC50 (Syk kinase; 11 pt) [µM]	IC50 [1, 3] [µM]	IC50 [1, 4] [µM]	IC50 ([2]; tryptase, 3 pt) [µM]	further results
CNC(=O)CNC(=O)c1ccc(Nc2ncc(F)c(Nc3ccc4c(c3)C(N)CCO4)n2)cc1 (racemic) [Compound 1299, (R,S)-N4-[4-Amino-3,4-dihydro-2H-1-benzopyran-6-yl]-5-fluoro-N2-[4-[N-(N-methylamino)carbonylmethylene]aminocarbonylphenyl]-2,4-pyrimidinediamine]	< 10	< 10	< 10	> 10	
COc1cc(Nc2nc(Nc3cc(C)cc(C)c3)ncc2F)cc(OC)c1 [Compound 350]	< 10	< 10	< 10	> 10	
COc1cc(OC)cc(N(C)c2nc(Nc3cc(C)cc(C)c3)ncc2F)c1 [Compound 399, N4-(3,5-Dimethoxyphenyl)-N2-(3,5-dimethylphenyl)-5-fluoro-N4-methyl-2,4-pyrimidinediamine]	< 10	< 10	< 10	> 10	
COc1ccc(N(C)c2nc(Cl)ncc2F)cc1OC [Compound 417]	> 10	> 10	> 10	> 10	
COc1ccc(Nc2nc(Nc3cccc(-c4ncco4)c3)ncc2F)cc1OC [Compound 423, N4-(3,4-Dimethoxyphenyl)-5-fluoro-N2-[3-(oxazol-2-yl)phenyl]-2,4-pyrimidinediamine]	< 10	< 10	< 10	> 10	
COc1ccc(N(C)c2nc(Nc3cccc(-c4ncco4)c3)ncc2F)cc1OC [Compound 439, N4-(3,4-Dimethoxyphenyl)-5-fluoro-N4-methyl-N2-[3-(oxazol-2-yl)phenyl]-2,4-pyrimidinediamine]	> 10	< 10	< 10	> 10	
CNC(=O)COc1ccc(Nc2nc(Nc3ccc4ccn(CC(=O)NC)c4c3)ncc2F)cc1Cl [Compound 648, N4-[3-Chloro-4-(N-methylamino)carbonylmethyleneoxyphenyl]-5-fluoro-N2-[1-(N-methylamino)carbonylmethyleneindol-6-yl]-2,4-pyrimidinediamine]					IC50 (Syk kinase; 11 point): < 10 µM; IC50 ([1]; tryptase release, 3 point, read-out: LD Tryptase, CHMC, IgE, 3 pt): < 10 µM; IC50 ([1]; tryptase release, 8 point, read-out: LD Tryptase, CHMC, IgE, 8 pt): < 10 µM; IC50 ([2]; tryptase release, 3 point): > 10 µM
COCCCn1ncc2cc(Nc3ncc(F)c(Nc4ccc(OC)c(Cl)c4)n3)ccc21 [Compound 792, N4-(3-Chloro-4-methoxyphenyl)-5-fluoro-N2-[1-(3-methoxypropyl)indazol-5-yl]-2,4-pyrimidinediamine]	< 10				IC50 [1, 5]: < 10 µM; IC50 [1, 6]: < 10 µM; IC50 ([2]; tryptase release, 3 pt): > 10 µM
COc1ccc(Nc2nc(Nc3ccc4[nH]c(C(F)(F)F)nc4c3)ncc2F)cc1Cl [Compound 800, N4-(3-Chloro-4-methoxyphenyl)-5-fluoro-N2-(2-trifluoromethyl-1H-benzimidazol-5-yl)-2,4-pyrimidinediamine]	< 10				IC50 [1, 5]: < 10 µM; IC50 [1, 6]: < 10 µM; IC50 ([2]; tryptase release, 3 pt): < 10 µM
Fc1cnc(Nc2ccc3[nH]c(C(F)(F)F)nc3c2)nc1Nc1ccc(Cl)c(Cl)c1 [Compound 801, N4-(3,4-Dichlorophenyl)-5-fluoro-N2-(2-trifluoromethyl-1H-benzimidazol-5-yl)-2,4-pyrimidinediamine]	< 10				IC50 [1, 5]: < 10 µM; IC50 [1, 6]: < 10 µM; IC50 ([2]; tryptase release, 3 pt): < 10 µM
COc1ccc(Nc2nc(Nc3ccc4nc(C)[nH]c4c3)ncc2F)cc1Cl [Compound 808, N4-(3-Chloro-4-methoxyphenyl)-5-fluoro-N2-(2-methyl-3H-benzimidazol-5-yl)-2,4-pyrimidinediamine]	< 10				IC50 [1, 5]: < 10 µM; IC50 [1, 6]: < 10 µM; IC50 ([2]; tryptase release, 3 pt): > 10 µM
Cc1nc2ccc(Nc3ncc(F)c(Nc4ccc(Cl)c(Cl)c4)n3)cc2[nH]1 [Compound 809, N4-(3,4-Dichlorophenyl)-5-fluoro-N2-(2-methyl-3H-benzimidazol-5-yl)-2,4-pyrimidinediamine]	< 10				IC50 [1, 5]: < 10 µM; IC50 [1, 6]: < 10 µM; IC50 ([2]; tryptase release, 3 pt): > 10 µM
COc1c(C)cc(Nc2ncc(F)c(Nc3cccc(NC4=NCCN4)c3)n2)cc1C [Compound 1093]	< 10				IC50 ([1]; tryptase readout, 3 pt, read-out: LD Tryptase, CHMC, IgE, 3 pt): < 10 µM; IC50 ([1]; tryptase readout, 8 pt, read-out: LD Tryptase, CHMC, IgE, 8 pt): < 10 µM; IC50 ([2]; tryptase readout, 3 pt): > 10 µM
Fc1cnc(Nc2cccc(-c3ncco3)c2)nc1Nc1cc(C2CC2)n[nH]1 [Compound 1144, N4-(3-Cyclopropyl-1H-pyrazol-5-yl)-5-fluoro-N2-[3-(oxazol-2-yl)phenyl]-2,4-pyrimidinediamine]	< 10	< 10	< 10	> 10	
CN1CCN(c2ccc(Nc3ncc(F)c(N(C)C4CCC4)n3)cc2)CC1 [Compound 1147, N4-Cyclobutyl-5-fluoro-N4-methyl-N2-[4-(4-methylpiperazino)phenyl]-2,4-pyrimidinediamine]	< 10	< 10	< 10	> 10	
CN1CCN(c2ccc(Nc3ncc(F)c(NC4CCCCC4)n3)cc2)CC1 [Compound 1164, N4-Cyclohexyl-5-fluoro-N2-[4-(4-methylpiperazino)phenyl]-2,4-pyrimidinediamine]	< 10	< 10		> 10	
O=C(Nc1ccc(Nc2ncc(F)c(NC3CCCCC3)n2)cc1)c1ccccc1 [Compound 1174, N2-(4-Benzamidophenyl)-N4-cyclohexyl-5-fluoro-2,4-pyrimidinediamine]	< 10	> 10	< 10	> 10	
COc1ccc(Nc2nc(Nc3ccc(C(N)=O)cc3)ncc2F)cc1Cl [Compound 1321, N2-(4-Aminocarbonylphenyl)-N4-(3-chloro-4-methoxyphenyl)-5-fluoro-2,4-pyrimidinediamine]	< 10		< 10		
CC1(C)Oc2ccc(Nc3ncc(F)c(Nc4ccc(C(N)=O)cc4)n3)cc2NC1=O [Compound 1337]	< 10	< 10	< 10		
Cc1noc(COc2ccc(Nc3nc(Nc4ccc(C(N)=O)cc4)ncc3F)cc2)n1 [Compound 1341, N2-(4-Aminocarbonylphenyl)-5-fluoro-N4-(4-[3-methyl-1,2,4-oxadiazol-5-yl]methyleneoxyphenyl)-2,4-pyrimidinediamine]	< 10	< 10	< 10		
CCN(CC)CCNC(=O)c1ccc(Nc2ncc(F)c(Nc3ccc(OCc4nc(C)no4)cc3)n2)cc1 [Compound 1343, N2-(4-[2-[N,N-Diethylamino]ethyleneaminocarbonyl]phenyl)-5-fluoro-N4-(4-[3-methyl-1,2,4-oxadiazol-5-yl]methyleneoxyphenyl)-2,4-pyrimidinediamine]	< 10	< 10	< 10		
Cc1noc(COc2ccc(Nc3nc(Nc4cc(Cl)c(O)c(Cl)c4)ncc3F)cc2)n1 [Compound 1344, N2-(3,5-Dichloro-4-hydroxyphenyl)-5-fluoro-N4-(4-[3-methyl-1,2,4-oxadiazol-5-yl]methyleneoxyphenyl)-2,4-pyrimidinediamine]	< 10	< 10	> 10		
COc1cc(Cl)cc(Nc2ncc(F)c(Nc3ccc(OCc4nc(C)no4)cc3)n2)c1 [Compound 1345, N2-(3-Chloro-5-methoxyphenyl)-5-fluoro-N4-(4-[3-methyl-1,2,4-oxadiazol-5-yl]methyleneoxyphenyl)-2,4-pyrimidinediamine]	< 10	> 10			
